Where a name gives a salt, the structure may show the parent alone. Read-outs that look alike come from different tables or passages of the source.
Tests used:
[1] = Acute toxicity test of sodium salt of N-acetylneuraminic acid, mouse (Example 11); parameters: species or system ICR mice; conditions: in vivo
Protocol: (§1) A test was conducted to examine the acute toxicity of sodium salt of N-acetylneuraminic acid, using mice, rats, and guinea pig by means of per as, subcutaneous injection, intravenous injection, intraperitoneal injection, and inhalation.
(§2) 20% (W/V) dissolved in distilled water

palatine mucosa of frog = assay: Mucociliary transport of frog palatine mucosa (Example 8, Table 6); assay type: cell-based; conditions: for activation at 100 µg/mL: 10^-1 mg/ml; for activation at 100 µg/mL / activation at 10 µg/mL / activation at 1 µg/mL / activation at 0.1 µg/mL: mean ± SD, over 20.0% significant, read-out: Acceleration (mucociliary transport); for activation at 10 µg/mL: 10^-2 mg/ml; for activation at 1 µg/mL: 10^-3 mg/ml; for activation at 0.1 µg/mL: 10^-4 mg/ml
Protocol: Mucociliary transport was measured by the particle transport method. After decapitation of a frog, the surface of the palatine mucosa was separated with minimized damage and of fixed to a cork plate in a Petri dish which was then filled with 20 ml of Ringer's solution (trishydrochloric acid). The palatine mucosa was left in this state for 30 minutes before the commencement of measurement. For measurement, the Ringer's solution was removed and fine pieces of cork (capable of passing pharmaceutical sieve No. 5 but not capable of passing No. 6) were placed on the surface of the palatine mucosa, and the time (in seconds) required for the cork piece to move 1 cm was measured. The duration of movement, i.e., moving speed, was measured also in the state immediately after the removal of the Ringer's solution or pharmaceutical solution.

[2] = Rheological properties and pH of purulent sputum after sodium salt treatment (Example 10); parameters: species or system human; conditions: 1 mg/ml sputum
Protocol: (§3) The sputum used as the specimens was collected from 12 samples of patients suffering from chronic obstructive lung disease. N-acetylneuraminic acid was added to the specimen sputum in the ratios of 5 mg/ml sputum and 1 mg/ml sputum, and the specimen was left for 1 hour at 4° C. before measurement. Sputum which has not been treated by N-acetylneuraminic acid was used as a comparison example. A palatine mucosa obtained from a decapitated frog head was kept at constant temperature and humidity until the mucus liquid of the frog itself depleted. The specimen sputum was placed on the dried palatine mucosa, and the speed of movement of the sputum was observed through a noumenal microscope, thus measuring the MTR. The pH value of the sputum was measured by means of an electronic model HM-SAp pH meter, while the spinnability was measured by a device developed by Nagaoka and Yamanaka (disclosed in Transactions of 2nd Symposium of Cough and sputum, published July 20, 1979). The yield value was measured by Dulfano's double-tube method which is shown in the American Review of Respiratory Diseases, Vol. 104, p88, 1971.
(§4) Effect of sodium salt of N-acetylneuraminic acid on sputum was examined in accordance with the testing method explained in connection with Example 5.

[3] = Acute toxicity test of sodium salt of N-acetylneuraminic acid, guinea pig (Example 11); parameters: species or system Hartley guinea pig; conditions: in vivo, intravenous injection, 95% 2,355-4,087
Protocol: as §1
Hartley guinea pig: 6 weeks old
as §2

[4] = Acute toxicity test of sodium salt of N-acetylneuraminic acid, rat (Example 11); assay type: in vivo, SD rats; conditions: in vivo
Protocol: as §1, §2
(§5) Inhalation was conducted by 1hr exposure to mist.

rat = assay: as above; assay type: in vivo, SD rats; conditions: inhalation, 1hr exposure to mist
Protocol: as §1, §2, §5

ciliated cell = assay: Rotating ciliated explant (Example 9, Table 7); assay type: cell-based; conditions: for activation at 100 µg/mL: 10^-1 mg/ml; for activation at 100 µg/mL / activation at 10 µg/mL / activation at 1 µg/mL / activation at 0.1 µg/mL: mean ± SD, > 20.0 significant, read-out: Acceleration (rotating ciliated explant); for activation at 10 µg/mL: 10^-2 mg/ml (terbutaline 1-^-2 [sic]); for activation at 0.1 µg/mL: 10^-4 mg/ml
Protocol: Human ciliated cells were collected from a normal trachea by means of a branchoscope, the ciliated cells being separated by rubbing the bronchus while observing through the branchoscope, while the collection of frog cilitated cells was conducted by rubbing the palatine mucosta, without being specially careful. […] The groups of cells were transferred to a cover slip and one drop of chicken plasma (prepared by Difco Company) and one drop of 50% chicken embryo extract were added to the cells, thus forming clots. The rotary motion in the clots was recorded by means of a video recorder and the number of rotations per minute was measured. The agents were dissolved in the Medium 199 and were injected through a tube attached to a rose chamber. The state of rotary motion 5 minutes, 10 minutes and 15 minutes after the injection were recorded by means of a video recorder, and the number of revolutions was measured.
A test was conducted to examine the above-mentioned effect by using sodium salt of N-Acetylneuraminic Acid, in accordance with the same testing method as that of Example 2.

[5] = system: purulent sputum from patients with diffuse panbronchiolitis; assay: MTR of purulent sputum after sodium salt treatment (Example 10); parameters: species or system human sputum; frog palatine mucosa; conditions: 1 mg/ml sputum
Protocol: as §3, §4

[6] = ip, intraperitoneal injection, first line (sex not given)
[7] = ip, intraperitoneal injection, second line (sex not given)
[8] = po, per os, first line (sex not given)
[9] = po, per os, second line (sex not given)
[10] = sc, subcutaneous injection, first line (sex not given)
[11] = sc, subcutaneous injection, second line (sex not given)

For CC(=O)N[C@H]1[C@H]([C@H](O)[C@H](O)CO)OC(O)(C(=O)O)C[C@@H]1O (stereo partly drawn) [sodium salt of N-acetylneuraminic acid], which LD50 at 336 h [1, 6] is on record?
Its LD50 at 336 h is > 5000 mg/kg.

And the LD50 at 336 h [1, 7]?
The LD50 at 336 h was > 5000 mg/kg.

What about the LD50 at 336 h ([1]; iv, intravenous injection, first line (sex not given), 95% 5,679-7,084) of the same compound?
The LD50 at 336 h was 6290 mg/kg.

And the LD50 at 336 h ([1]; iv, intravenous injection, second line (sex not given), 95% 7,214-9,073)?
Its LD50 at 336 h is 7950 mg/kg.

What about the LD50 at 336 h [1, 8] of the same compound?
Its LD50 at 336 h is > 5000 mg/kg.

And the LD50 at 336 h [1, 9]?
The LD50 at 336 h was > 5000 mg/kg.

What about the LD50 at 336 h [1, 10] of the same compound?
Its LD50 at 336 h is > 5000 mg/kg.

And the LD50 at 336 h [1, 11]?
Its LD50 at 336 h is > 5000 mg/kg.

What about the activation at 100 µg/mL (palatine mucosa of frog; 5 min, 5 min after applied) of the same compound?
Its activation at 100 µg/mL is 10.7 ± 19.2%.

And the activation at 10 µg/mL (palatine mucosa of frog; 5 min, 5 min after applied)?
Its activation at 10 µg/mL is 20.8 ± 25.5%.

What about the activation at 1 µg/mL (palatine mucosa of frog; 5 min, 5 min after applied) of the same compound?
Its activation at 1 µg/mL is 16.2 ± 19.5%.

And the activation at 0.1 µg/mL (palatine mucosa of frog; 5 min, 5 min after applied)?
The activation at 0.1 µg/mL was 2.6 ± 22.2%.

And the activation at 100 µg/mL (palatine mucosa of frog; 10 min, 10 min after applied)?
Its activation at 100 µg/mL is 8.5 ± 23.4%.

And the activation at 10 µg/mL (palatine mucosa of frog; 10 min, 10 min after applied)?
Its activation at 10 µg/mL is 18 ± 29.7%.

And the activation at 1 µg/mL (palatine mucosa of frog; 10 min, 10 min after applied)?
The activation at 1 µg/mL was 18.9 ± 22.1%.

And the activation at 0.1 µg/mL (palatine mucosa of frog; 10 min, 10 min after applied)?
Its activation at 0.1 µg/mL is 8.5 ± 21.9%.

What about the activation at 100 µg/mL (palatine mucosa of frog; 0.25 h, 15 min after applied) of the same compound?
The activation at 100 µg/mL was 7.4 ± 24.7%.

And the activation at 10 µg/mL (palatine mucosa of frog; 0.25 h, 15 min after applied)?
Its activation at 10 µg/mL is 5.7 ± 24.9%.

And the activation at 1 µg/mL (palatine mucosa of frog; 0.25 h, 15 min after applied)?
Its activation at 1 µg/mL is 17.7 ± 34%.

And the activation at 0.1 µg/mL (palatine mucosa of frog; 0.25 h, 15 min after applied)?
Its activation at 0.1 µg/mL is 7.1 ± 27.2%.

What about the “Effect on MTR of frog palatine mucosa” value (palatine mucosa of frog; Table 6) of the same compound?
The value was “acceleration of the MTR of the frog palatine mucosa in a certain dependency on the dose”.

And the “Effect compared with acetylcholine” value (palatine mucosa of frog; acetylcholine at 10^-4 mg/ml)?
The value was “subtantially equivalent to that of the acetylcholine”.

And the Change of spinnability [2]?
Its Change of spinnability is “generally increased”.

And the “Change of sputum pH” value [2]?
Its value is “significant increase in pH value”.

What about the “Change of yield value” [2] of the same compound?
The value was “a reduction was observed with regard to the yield value”.

What about the “Yield value after treatment” value ([2]; 15 specimens, mean ± S.D., before 0.8 ± 1.5) of the same compound?
The value was 0.3 ± 0.6 mmH2 O.

What about the pH after treatment ([2]; 15 specimens, mean ± S.D., before 7.48 ± 0.41, P < 0.001) of the same compound?
The pH after treatment was 7.91 ± 0.43.

And the Spinnability after treatment ([2]; 15 specimens, mean ± S.D., before 13 ± 14)?
The Spinnability after treatment was 21 ± 28 mm.

And the LD50 at 336 h [3]?
Its LD50 at 336 h is 2860 mg/kg.

What about the LD50 at 336 h [4, 6] of the same compound?
Its LD50 at 336 h is > 5000 mg/kg.

And the LD50 at 336 h [4, 7]?
The LD50 at 336 h was > 5000 mg/kg.

And the LD50 at 336 h ([4]; iv, intravenous injection, first line (sex not given), 95% 2,638-3,342)?
Its LD50 at 336 h is 2970 mg/kg.

What about the LD50 at 336 h ([4]; iv, intravenous injection, second line (sex not given)) of the same compound?
The LD50 at 336 h was > 5000 mg/kg.

What about the LD50 at 336 h [4, 8] of the same compound?
The LD50 at 336 h was > 5000 mg/kg.

What about the LD50 at 336 h [4, 9] of the same compound?
The LD50 at 336 h was > 5000 mg/kg.

And the LD50 at 336 h [4, 10]?
Its LD50 at 336 h is > 5000 mg/kg.

What about the LD50 at 336 h [4, 11] of the same compound?
Its LD50 at 336 h is > 5000 mg/kg.

What about the LD50 (rat; first line (sex not given)) of the same compound?
The LD50 was > 4,000 mg/m^3.

And the LD50 (rat; second line (sex not given))?
The LD50 was > 4,000 mg/m^3.

What about the “Effect on number of rotations” value (ciliated cell; 10^-3 mg/ml) of the same compound?
Its value is “A significant number of rotations was observed”.

And the activation at 100 µg/mL (ciliated cell; 5 min, 5 min after perfusion)?
The activation at 100 µg/mL was 0%.

What about the activation at 10 µg/mL (ciliated cell; 5 min, 5 min after perfusion) of the same compound?
Its activation at 10 µg/mL is 1.5 ± 11.6%.

What about the activation at 1 µg/mL (ciliated cell; 5 min, 10^-3 mg/ml, 5 min after perfusion) of the same compound?
The activation at 1 µg/mL was 11.6 ± 29.8%.

What about the activation at 0.1 µg/mL (ciliated cell; 5 min, 5 min after perfusion) of the same compound?
The activation at 0.1 µg/mL was -3.4 ± 9.7%.

And the activation at 100 µg/mL (ciliated cell; 10 min, 10 min after perfusion)?
Its activation at 100 µg/mL is 4.7 ± 6.6%.

What about the activation at 10 µg/mL (ciliated cell; 10 min, 10 min after perfusion) of the same compound?
The activation at 10 µg/mL was 2.1 ± 18.2%.

What about the activation at 1 µg/mL (ciliated cell; 10 min, 10^-3 mg/ml, 10 min after perfusion) of the same compound?
Its activation at 1 µg/mL is 20.7 ± 27.5%.

What about the activation at 0.1 µg/mL (ciliated cell; 10 min, 10 min after perfusion) of the same compound?
Its activation at 0.1 µg/mL is 0.6 ± 10.6%.

What about the activation at 100 µg/mL (ciliated cell; 0.25 h, 15 min after perfusion) of the same compound?
Its activation at 100 µg/mL is 15.4 ± 9.3%.

And the activation at 10 µg/mL (ciliated cell; 0.25 h, 15 min after perfusion)?
Its activation at 10 µg/mL is 3.7 ± 29.3%.

What about the activation at 1 µg/mL (ciliated cell; 0.25 h, 10^-3 mg/ml, 15 min after perfusion) of the same compound?
Its activation at 1 µg/mL is 16.2 ± 32.3%.

And the activation at 0.1 µg/mL (ciliated cell; 0.25 h, 15 min after perfusion)?
The activation at 0.1 µg/mL was -5 ± 8.2%.

What about the “Change of sputum MTR” value [5] of the same compound?
The value was “significant increase in pH value and MTR”.

What about the MTR after treatment ([5]; 15 specimens, mean ± S.D., before 9 ± 5, P < 0.01) of the same compound?
The MTR after treatment was 12 ± 5 mm/min.

— patent US4698332A, “Expectorant” (Mect Corporation, priority 1984, dated 1987)
